Experiments:
Assay type in all cases: in vivo
[1] = tested on: C57BLKS db/db mice; assay: 10 days study: oral glucose tolerance, blood glucose 15 minutes after glucose application; conditions: fasted 24 h, 15 minutes after 1 g/kg oral glucose
Experimental: (§1) Female C57BLKS db/db mice obtained from M&B A/S (8680 Ry, Denmark) were used In the studies at 10 to 11 weeks of age. Mice were housed 10 per cage and allowed free access to water and chow (chow 3433, Provimi Kliba SA, 4303 Kaiseraugst, Switzerland).
(§2) Mice were allowed to acclimate to the local animal facilities for 1 week and retro-orbital blood samples were obtained 3 to 7 days prior to the start of the study.
(§3) Mice were treated with vehicle or a selected PDE4 inhibitor compound once daily in the morning. The selective PDE4 inhibitor compounds to be tested were suspended in 4% methocel and applied via oral gavage using oral feeding & dosing needles (outer diameter: 1.5 mm, TSE GmbH, 61350 Bad Homburg, Germany). A volume of 10 ml/kg body weight was administered for each dose.
(§4) 10 days studies: Mice were treated with vehicle or a selected PDE4 inhibitor compound once daily in the morning. On day 9, mice were fasted for 24 hours by removing chow 1 hour after drug application. On day 10, glucose tolerance was assessed by oral application of 1 g/kg/10 ml glucose. Blood was sampled 15 minutes after glucose application and levels of glucose (accu-chek, Roche Diagnostics GmbH, 68298 Mannheim, Germany) were measured.

[2] = tested on: C57BLKS db/db mice; assay: 56 days study: fasting blood glucose and oral glucose tolerance; conditions: for Blood glucose 15 min after glucose application: 1 g/kg oral glucose; for Blood glucose fasting: fasted 24 h
Experimental: as §1, §2, §3
as §4, with “56 days” for “10 days”, “day 55,” for “day 9,”, “day 56, fasting blood glucose levels were measured and” for “day 10,”, “Germany) and lactate (lactate reagent, Sigma-Aldrich GmbH, 82039 Deisenhofen, Germany)” for “Germany)”

[3] = tested on: C57BLKS db/db mice; assay: 56 days study: lactate levels, fasting and after glucose application; conditions: for Lactate 15 min after glucose application: 1 g/kg oral glucose; for Lactate fasting: serum, fasted 24 h
Experimental: as §1, §2, §3
as §4, with “56 days” for “10 days”, “day 55,” for “day 9,”, “day 56, fasting blood glucose levels were measured and” for “day 10,”, “Germany) and lactate (lactate reagent, Sigma-Aldrich GmbH, 82039 Deisenhofen, Germany)” for “Germany)”

Lactate 15 min after glucose application ([3]; 3 mg/kg oral once daily) | Lactate 15 min after glucose application ([3]; 30 mg/kg oral once daily) | Lactate fasting ([3]; 3 mg/kg oral once daily) | Lactate fasting ([3]; 30 mg/kg oral once daily) | SMILES | Blood glucose ([1]; 3 mg/kg oral once daily) | Blood glucose ([1]; 30 mg/kg oral once daily) | Blood glucose 15 min after glucose application ([2]; 3 mg/kg oral once daily) | Blood glucose fasting ([2]; 3 mg/kg oral once daily) | Blood glucose 15 min after glucose application ([2]; 30 mg/kg oral once daily) | Blood glucose fasting ([2]; 30 mg/kg oral once daily)
70 mg/dL | 61 mg/dL | 49 mg/dL | 43 mg/dL | COc1cc2c(cc1OC)[C@@H]1CCCC[C@@H]1N=C2c1ccc(OCC2CC2)c(OCC2CC2)c1 [COMPOUND A, (−)-cis-8,9-Dimethoxy-6-[3,4-bis-(cyclopropylmethoxy)phenyl]-1,2,3,4,4a,10b-hexahydrophenanthridine] | 507 mg/dL | 411.5 mg/dL | 580 mg/dL | 279 mg/dL | 352 mg/dL | 193 mg/dL
– | – | – | – | COc1cc2c(cc1OC)[C@@H]1CCCC[C@@H]1N=C2c1ccc(C(=O)c2ccccc2)cc1 [COMPOUND B, (−)-cis-8,9-Dimethoxy-6-(4-benzoylphenyl)-1,2,3,4,4a,10b-hexahydrophenanthridine] | 362 mg/dL | 251 mg/dL | – | – | – | –
– | – | – | – | COc1cc2c(cc1OC)[C@@H]1CCCC[C@@H]1N=C2c1ccc(C(=O)O)cc1.Cl [COMPOUND C, (+)-cis-8,9-Dimethoxy-6-(4-carboxyphenyl)-1,2,3,4,4a,10b-hexahydrophenanthridine Hydrochloride] | 506 mg/dL | 449 mg/dL | – | – | – | –
– | – | – | – | CCn1nnc(-c2ccc(C3=N[C@H]4CCCC[C@H]4c4cc(OC)c(OC)cc43)cc2)n1 [COMPOUND D, (−)-cis-6-[4-(2-Ethyl-2H-tetrazol-5-yl)-phenyl]-8,9-dimethoxy-1,2,3,4,4a,10b-hexahydrophenanthridine] | 437 mg/dL | 285 mg/dL | – | – | – | –

From patent US7776893B2, “Use of PDE4 inhibitors for the treatment of diabetes mellitus” (NYCOMED GmbH, priority 2003, dated 2010)
